From patent US20250230193A1, “CYCLIC COMPOUND HAVING SELECTIVE KRAS INHIBITORY EFFECT ON HRAS AND NRAS” (CHUGAI SEIYAKU KABUSHIKI KAISHA, priority 2022, published 2025)

How the values were obtained:
[1] = target: GDP-bound NRAS wild-type protein (Homo sapiens, UniProt P01111); test: Binding to NRAS by surface plasmon resonance (SPR), Single Cycle Kinetics; settings: SPR; KD ratio class
[2] = target: GDP-bound HRAS wild-type protein (Homo sapiens, UniProt P01112); test: Binding to HRAS by surface plasmon resonance (SPR), Single Cycle Kinetics; settings: SPR; KD ratio class
[3] = test system: human lung cancer strain NCI-H441; test: cells; settings: NCI-H441, 96 h, read-out: NCI-H441 IC50 (nM)

GDP-bound HRAS wild-type protein, sequence (P01112 whole entry): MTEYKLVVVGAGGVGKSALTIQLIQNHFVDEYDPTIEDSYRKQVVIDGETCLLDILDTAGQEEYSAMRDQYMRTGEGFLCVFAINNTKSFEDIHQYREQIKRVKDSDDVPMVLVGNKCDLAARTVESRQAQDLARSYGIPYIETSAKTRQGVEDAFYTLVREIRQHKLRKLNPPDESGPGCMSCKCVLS
GDP-bound NRAS wild-type protein, sequence (P01111 whole entry): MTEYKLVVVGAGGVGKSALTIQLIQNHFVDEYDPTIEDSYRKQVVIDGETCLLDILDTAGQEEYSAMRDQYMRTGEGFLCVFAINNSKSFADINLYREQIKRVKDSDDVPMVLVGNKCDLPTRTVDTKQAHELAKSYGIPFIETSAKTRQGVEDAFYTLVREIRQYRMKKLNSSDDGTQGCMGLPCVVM

CCO[C@@H]1C[C@H]2C(=O)NC3(CCC3)C(=O)N(C)[C@@H](C3CCCC3)C(=O)N(C)[C@H](C(=O)N3CCOCC3)CC(=O)N(C)[C@@H](CC3CCC3)C(=O)N[C@@H]([C@@H](C)CC)C(=O)N(C)CC(=O)N(C)[C@H]3C/C=C\CCN(C3=O)[C@@H](Cc3ccc(C(F)(F)F)cc3)C(=O)N(C)CC(=O)N[C@@H](CCc3cc(F)c(C(F)(F)F)c(F)c3)C(=O)N2C1 [PP1422]
NRAS/KRAS (ratio of KD value for GDP-bound NRAS wild-type protein to KD value for KRAS) [1]: AA (a compound having 20 or more is denoted as AA)
HRAS/KRAS (ratio of KD value for GDP-bound HRAS wild-type protein to KD value for KRAS) [2]: A (a compound having 10 or more and less than 20 is denoted as A)
IC50 [3]: 14.1 nM

CCO[C@@H]1C[C@H]2C(=O)NC3(CCC3)C(=O)N(C)[C@@H](C3CCCC3)C(=O)N(C)[C@H](C(=O)N(C)C)CC(=O)N(C)[C@@H](CC(C)C)C(=O)N[C@@H]([C@@H](C)CC)C(=O)N(C)CC(=O)N(C)[C@H]3C/C=C\CCN(C3=O)[C@@H](Cc3ccc(F)cc3)C(=O)N(C)CC(=O)N[C@@H](CCc3cc(F)c(Cl)c(F)c3)C(=O)N2C1 [PP1483]
NRAS/KRAS (ratio of KD value for GDP-bound NRAS wild-type protein to KD value for KRAS) [1]: A (a compound having 10 or more and less than 20 is denoted as A)
HRAS/KRAS (ratio of KD value for GDP-bound HRAS wild-type protein to KD value for KRAS) [2]: B (a compound having 3 or more and less than 10 is denoted as B)
IC50 [3]: 90.3 nM

CCO[C@@H]1C[C@H]2C(=O)NC3(CCC3)C(=O)N(C)[C@@H](C3CCCC3)C(=O)N(C)[C@H](C)CC(=O)N(C)[C@@H](CC3CCCC3)C(=O)N[C@@H]([C@@H](C)CC)C(=O)N(C)CC(=O)N(C)[C@H]3C/C=C\CCN(C3=O)[C@@H](Cc3ccc(F)cc3)C(=O)N(C)CC(=O)N[C@@H](CCc3cc(F)c(C(F)(F)F)c(F)c3)C(=O)N2C1 [PP1492]
NRAS/KRAS (ratio of KD value for GDP-bound NRAS wild-type protein to KD value for KRAS) [1]: B (a compound having 3 or more and less than 10 is denoted as B)
HRAS/KRAS (ratio of KD value for GDP-bound HRAS wild-type protein to KD value for KRAS) [2]: B (a compound having 3 or more and less than 10 is denoted as B)
IC50 [3]: 129 nM

CC[C@H](C)[C@@H]1NC(=O)[C@H](CC2CCC2)N(C)C(=O)C[C@@H](C(=O)N2CCOCC2)N(C)C(=O)[C@H](C2CCCC2)N(C)C(=O)C2(CCC2)NC(=O)[C@@H]2CCCN2C(=O)[C@H](CCc2ccc(C(F)(F)F)c(Cl)c2)NC(=O)CN(C)C(=O)[C@H](Cc2ccc(C(F)(F)F)cc2)N2C[C@H](C)CC[C@@H](C2=O)N(C)C(=O)[C@@H]2CCN2C1=O [PP1345]
NRAS/KRAS (ratio of KD value for GDP-bound NRAS wild-type protein to KD value for KRAS) [1]: A (a compound having 10 or more and less than 20 is denoted as A)
HRAS/KRAS (ratio of KD value for GDP-bound HRAS wild-type protein to KD value for KRAS) [2]: B (a compound having 3 or more and less than 10 is denoted as B)
IC50 [3]: 34.8 nM

CCO[C@@H]1C[C@H]2C(=O)NC3(CC(C)(C)C3)C(=O)N(C)[C@@H](C3CCCC3)C(=O)N(C)[C@H](C(=O)N(C)C)CC(=O)N(C)[C@@H](CC3CC3)C(=O)N[C@@H]([C@@H](C)CC)C(=O)N(C)CC(=O)N(C)[C@H]3C/C=C\CCN(C3=O)[C@@H](Cc3ccc(C(F)(F)F)cc3)C(=O)N(C)CC(=O)N[C@@H](CCc3ccc(C(F)(F)F)c(OC)c3)C(=O)N2C1 [PP1563]
NRAS/KRAS (ratio of KD value for GDP-bound NRAS wild-type protein to KD value for KRAS) [1]: A (a compound having 10 or more and less than 20 is denoted as A)
HRAS/KRAS (ratio of KD value for GDP-bound HRAS wild-type protein to KD value for KRAS) [2]: A (a compound having 10 or more and less than 20 is denoted as A)
IC50 [3]: 2.6 nM

CCO[C@@H]1C[C@H]2C(=O)NC3(CCC3)C(=O)N(C)[C@@H](C3CCCC3)C(=O)N(C)[C@H](C(=O)N(C)C)CC(=O)N(C)[C@@H](CC(C)C)C(=O)N[C@@H]([C@@H](C)CC)C(=O)N(C)CC(=O)N(C)[C@H]3C/C=C\CCN(C3=O)[C@@H](Cc3ccc(C(F)(F)F)cc3)C(=O)N(C)CC(=O)N[C@@H](CCc3ccc(Cl)c(Cl)c3)C(=O)N2C1 [PP1251]
NRAS/KRAS (ratio of KD value for GDP-bound NRAS wild-type protein to KD value for KRAS) [1]: AA (a compound having 20 or more is denoted as AA)
HRAS/KRAS (ratio of KD value for GDP-bound HRAS wild-type protein to KD value for KRAS) [2]: A (a compound having 10 or more and less than 20 is denoted as A)
IC50 [3]: 10.2 nM

CCO[C@@H]1C[C@H]2C(=O)NC3(CCC3)C(=O)N(C)[C@@H](C3CCCC3)C(=O)N(C)[C@H](C(=O)N(C)CC)CC(=O)N(C)[C@@H](CC3CCCC3)C(=O)N[C@@H]([C@@H](C)CC)C(=O)N(C)CC(=O)N(C)[C@H]3C/C=C\CCN(C3=O)[C@@H](Cc3ccc(C(F)(F)F)cc3)C(=O)N(C)CC(=O)N[C@@H](CCc3ccc(C(F)(F)F)c(OC)c3)C(=O)N2C1 [PP1573]
NRAS/KRAS (ratio of KD value for GDP-bound NRAS wild-type protein to KD value for KRAS) [1]: A (a compound having 10 or more and less than 20 is denoted as A)
HRAS/KRAS (ratio of KD value for GDP-bound HRAS wild-type protein to KD value for KRAS) [2]: A (a compound having 10 or more and less than 20 is denoted as A)
IC50 [3]: 5.2 nM

CCO[C@@H]1C[C@H]2C(=O)NC3(CCC3)C(=O)N(C)[C@@H](C3CCCC3)C(=O)N(C)[C@H](C(=O)N3CCOCC3)CC(=O)N(C)[C@@H](CC3CC3)C(=O)N[C@@H]([C@@H](C)CC)C(=O)N(C)CC(=O)N(C)[C@H]3C/C=C\CCN(C3=O)[C@@H](Cc3ccc(C(F)(F)F)cc3)C(=O)N(C)CC(=O)N[C@@H](CCc3cc(F)c(C(F)(F)F)c(F)c3)C(=O)N2C1 [PP1283]
NRAS/KRAS (ratio of KD value for GDP-bound NRAS wild-type protein to KD value for KRAS) [1]: AA (a compound having 20 or more is denoted as AA)
HRAS/KRAS (ratio of KD value for GDP-bound HRAS wild-type protein to KD value for KRAS) [2]: A (a compound having 10 or more and less than 20 is denoted as A)
IC50 [3]: 42.6 nM

CCO[C@@H]1C[C@H]2C(=O)NC3(CCC3)C(=O)N(C)[C@@H](C3CCCC3)C(=O)N(C)[C@H](C(=O)N3CCCC3)CC(=O)N(C)[C@@H](CC3CCCCC3)C(=O)N[C@@H]([C@@H](C)CC)C(=O)N(C)CC(=O)N(C)[C@H]3C/C=C\CCN(C3=O)[C@@H](Cc3ccc(C(F)(F)F)cc3)C(=O)N(C)CC(=O)N[C@@H](CCc3cc(F)c(C(F)(F)F)c(F)c3)C(=O)N2C1 [PP1419]
NRAS/KRAS (ratio of KD value for GDP-bound NRAS wild-type protein to KD value for KRAS) [1]: AA (a compound having 20 or more is denoted as AA)
HRAS/KRAS (ratio of KD value for GDP-bound HRAS wild-type protein to KD value for KRAS) [2]: A (a compound having 10 or more and less than 20 is denoted as A)
IC50 [3]: 40.4 nM

CCO[C@@H]1C[C@H]2C(=O)NC3(CCC3)C(=O)N(C)[C@@H](C(CC)CC)C(=O)N(C)[C@H](C(=O)N3CCOCC3)CC(=O)N(C)[C@@H](CC3CC3)C(=O)N[C@@H]([C@@H](C)CC)C(=O)N(C)CC(=O)N(C)[C@H]3C/C=C\CCN(C3=O)[C@@H](Cc3ccc(F)cc3)C(=O)N(C)CC(=O)N[C@@H](CCc3cc(F)c(C(F)(F)F)c(F)c3)C(=O)N2C1 [PP1527]
NRAS/KRAS (ratio of KD value for GDP-bound NRAS wild-type protein to KD value for KRAS) [1]: A (a compound having 10 or more and less than 20 is denoted as A)
HRAS/KRAS (ratio of KD value for GDP-bound HRAS wild-type protein to KD value for KRAS) [2]: A (a compound having 10 or more and less than 20 is denoted as A)
IC50 [3]: 143 nM

CCO[C@@H]1C[C@H]2C(=O)NC3(CCC3)C(=O)N(C)[C@@H](C3CCCC3)C(=O)N(C)[C@H](C(=O)N3CCOCC3)CC(=O)N(C)[C@@H](CC3CC3)C(=O)N[C@@H]([C@@H](C)CC)C(=O)N(C)CC(=O)N(C)[C@H]3C/C=C\CCN(C3=O)[C@@H](Cc3ccc(C)cc3)C(=O)N(C)CC(=O)N[C@@H](CCc3cc(F)c(C(F)(F)F)c(F)c3)C(=O)N2C1 [PP1408]
NRAS/KRAS (ratio of KD value for GDP-bound NRAS wild-type protein to KD value for KRAS) [1]: A (a compound having 10 or more and less than 20 is denoted as A)
HRAS/KRAS (ratio of KD value for GDP-bound HRAS wild-type protein to KD value for KRAS) [2]: A (a compound having 10 or more and less than 20 is denoted as A)
IC50 [3]: 37.6 nM

CCO[C@@H]1C[C@H]2C(=O)NC3(CCC3)C(=O)N(C)[C@@H](C3CCCC3)C(=O)N(C)[C@H](C(=O)N(C)C)CC(=O)N(C)[C@@H](CC3CC3)C(=O)N[C@@H]([C@@H](C)CC)C(=O)N(C)CC(=O)N(C)[C@H]3C/C=C\CCN(C3=O)[C@@H](Cc3ccc(C(F)(F)F)cc3)C(=O)N(C)CC(=O)N[C@@H](CCc3ccc4sccc4c3)C(=O)N2C1 [PP1260]
NRAS/KRAS (ratio of KD value for GDP-bound NRAS wild-type protein to KD value for KRAS) [1]: A (a compound having 10 or more and less than 20 is denoted as A)
HRAS/KRAS (ratio of KD value for GDP-bound HRAS wild-type protein to KD value for KRAS) [2]: A (a compound having 10 or more and less than 20 is denoted as A)
IC50 [3]: 60.4 nM

CCO[C@@H]1C[C@H]2C(=O)NC3(CCC3)C(=O)N(C)[C@@H](C3CCCC3)C(=O)N(C)[C@H](C(=O)N(C)C)CC(=O)N(C)[C@@H](CC3CCCC3)C(=O)N[C@@H]([C@@H](C)CC)C(=O)N(C)CC(=O)N(C)[C@H]3C/C=C\CCN(C3=O)[C@@H](CC3CCC(F)(F)CC3)C(=O)N(C)CC(=O)N[C@@H](CCc3cc(F)c(C(F)(F)F)c(F)c3)C(=O)N2C1 [PP1458]
NRAS/KRAS (ratio of KD value for GDP-bound NRAS wild-type protein to KD value for KRAS) [1]: A (a compound having 10 or more and less than 20 is denoted as A)
HRAS/KRAS (ratio of KD value for GDP-bound HRAS wild-type protein to KD value for KRAS) [2]: A (a compound having 10 or more and less than 20 is denoted as A)
IC50 [3]: 18.2 nM

CCO[C@@H]1C[C@H]2C(=O)NC3(CCC3)C(=O)N(C)[C@@H](C3CCCC3)C(=O)N(C)[C@H](C(=O)N3CCCC3)CC(=O)N(C)[C@@H](CC3CCCC3)C(=O)N[C@@H]([C@@H](C)CC)C(=O)N(C)CC(=O)N(C)[C@H]3C/C=C\CCN(C3=O)[C@@H](Cc3ccc(F)cc3)C(=O)N(C)CC(=O)N[C@@H](CCc3ccc4sccc4c3)C(=O)N2C1 [PP1391]
NRAS/KRAS (ratio of KD value for GDP-bound NRAS wild-type protein to KD value for KRAS) [1]: A (a compound having 10 or more and less than 20 is denoted as A)
HRAS/KRAS (ratio of KD value for GDP-bound HRAS wild-type protein to KD value for KRAS) [2]: A (a compound having 10 or more and less than 20 is denoted as A)
IC50 [3]: 271 nM
